{"source": "ChEMBL document CHEMBL6134894", "about": "“Medoxomil Prodrug Strategies” (J Med Chem, 2025)", "key": {"[1]": {"tested_on": "Human immunodeficiency virus 1", "experiment": "Antiviral activity against HIV-1 infected in human MT4 cells assessed as inhibition of viral growth", "assay_type": "functional, organism-based", "conditions": "Human immunodeficiency virus 1, MT4"}, "[2]": {"experiment": "Oral bioavailability in Sprague-Dawley rat", "assay_type": "ADME, organism-based", "conditions": "in vivo"}, "[3]": {"experiment": "Lipophilicity, logP of the compound", "assay_type": "physicochemical", "conditions": "octanol/water"}, "[4]": {"experiment": "Oral bioavailability in Beagle dog", "assay_type": "ADME, organism-based, Canis lupus familiaris", "conditions": "in vivo"}, "[5]": {"experiment": "Water solubility of the compound at pH 7.4 by HPLC analysis", "assay_type": "physicochemical"}, "[6]": {"experiment": "Oral bioavailability in dog at 0.03 mg/kg", "assay_type": "ADME, organism-based, Canis lupus familiaris", "conditions": "in vivo"}, "[7]": {"experiment": "Inhibition of ADP-induced platelet aggregation in New Zealand White rabbit", "assay_type": "functional, Oryctolagus cuniculus"}, "[8]": {"experiment": "Oral bioavailability in rat", "assay_type": "ADME, organism-based", "conditions": "in vivo"}, "[9]": {"experiment": "Oral bioavailability in Sprague-Dawley rat at 10 mg/kg measured for 24 hrs by LC-MS/MS analysis", "assay_type": "ADME, organism-based", "conditions": "in vivo"}, "[10]": {"experiment": "Permeability across apical to basolateral side in human Caco-2 cells", "assay_type": "ADME, cell-based", "conditions": "read-out: permeability"}, "[11]": {"experiment": "Toxicity in Wistar rat assessed as effective dose", "conditions": "in vivo, 6 h"}, "[12]": {"experiment": "Half life in Wistar rat at 20 mg/kg, po by LC-MS/MS analysis", "assay_type": "ADME, organism-based", "conditions": "in vivo"}, "[13]": {"experiment": "Cmax in human at 20 mg/kg, po by LC-MS/MS analysis", "assay_type": "ADME, organism-based", "conditions": "in vivo"}, "[14]": {"experiment": "AUC in human at 20 mg/kg, po by LC-MS/MS analysis", "assay_type": "ADME, organism-based", "conditions": "in vivo"}}, "note": "pEC50: −log10 of the molar value.", "data": [{"smiles": "Cc1oc(=O)oc1COP(=O)(O)COCCn1cnc2c(N)ncnc21", "values": [{"measurement": "pEC50", "setting": "[1]", "result": 4.97}]}, {"smiles": "C=C(c1ccc(C(=O)OCC)cc1)c1cc2c(cc1C)C(C)(C)CCC2(C)C", "values": [{"measurement": "bioavailability", "setting": "[2]", "result": 35, "unit": "%"}]}, {"smiles": "Cc1oc(=O)oc1COC(=O)CC[C@H](NC(=O)c1ccc(CCc2c[nH]c3[nH]c(N)nc(=O)c23)cc1)C(=O)O", "values": [{"measurement": "logP", "setting": "[3]; read-out: logP", "result": 1.72}]}, {"smiles": "Cc1oc(=O)oc1COC(=O)CC[C@H](NC(=O)c1ccc(CCc2c[nH]c3[nH]c(N)nc(=O)c23)cc1)C(=O)OCc1oc(=O)oc1C", "values": [{"measurement": "logP", "setting": "[3]; read-out: logP", "result": 2.64}]}, {"smiles": "Cc1oc(=O)oc1COC(=O)[C@@](C)(N)Cc1ccc(O)c(O)c1", "values": [{"measurement": "bioavailability", "setting": "[4]", "result": 92.1, "unit": "%"}]}, {"smiles": "Cc1oc(=O)oc1COC(=O)N1CC[C@@H](N2CC/C(=C\\C3=C(C(=O)O)N4C(=O)[C@@H](NC(=O)/C(=N\\O)c5nsc(N)n5)[C@H]4SC3)C2=O)C1", "values": [{"measurement": "solubility", "setting": "[5]", "result": "> 200", "unit": "µg/mL"}]}, {"smiles": "Cc1oc(=O)oc1COC(=O)N1CCC(CC[C@@H]2CCCN(CC(=O)N[C@H](C)CC(=O)O)C2=O)CC1", "values": [{"measurement": "bioavailability", "setting": "[6]", "result": 23, "unit": "%"}, {"measurement": "inhibition (INH)", "setting": "[7]", "result": 100, "unit": "%"}]}, {"smiles": "C=C(c1ccc(C(=O)OCc2oc(=O)oc2C)cc1)c1cc2c(cc1C)C(C)(C)CCC2(C)C", "values": [{"measurement": "bioavailability", "setting": "[2]", "result": 12, "unit": "%"}]}, {"smiles": "Nc1ncnc2c1ncn2CCOCP(=O)(O)O", "note": "[ADEFOVIR]", "values": [{"measurement": "pEC50", "setting": "[1]", "result": 4.98}]}, {"smiles": "COC(=O)N[C@H](C(=O)N[C@@H](Cc1ccccc1)[C@@H](O)CN(Cc1ccc(-c2ccccn2)cc1)NC(=O)[C@@H](NC(=O)OC)C(C)(C)C)C(C)(C)C", "note": "[ATAZANAVIR]", "values": [{"measurement": "F", "setting": "[8]", "result": 1, "unit": "%"}, {"measurement": "bioavailability", "setting": "[9]", "result": 20, "unit": "%"}]}, {"smiles": "CCOc1nc2cccc(C(=O)OCc3oc(=O)oc3C)c2n1Cc1ccc(-c2ccccc2-c2noc(=O)[nH]2)cc1", "note": "[AZILSARTAN MEDOXOMIL]", "values": [{"measurement": "Papp A→B", "setting": "[10]", "result": 2.8, "unit": "×10⁻⁶ cm/s"}]}, {"smiles": "CCOc1nc2cccc(C(=O)O)c2n1Cc1ccc(-c2ccccc2-c2noc(=O)[nH]2)cc1", "note": "[AZILSARTAN]", "values": [{"measurement": "Papp A→B", "setting": "[10]", "result": 0.636, "unit": "×10⁻⁶ cm/s"}]}, {"smiles": "C=C(c1ccc(C(=O)O)cc1)c1cc2c(cc1C)C(C)(C)CCC2(C)C", "note": "[BEXAROTENE]", "values": [{"measurement": "bioavailability", "setting": "[2]", "result": 75, "unit": "%"}]}, {"smiles": "CCCCc1nc(Cl)c(C(=O)O)n1Cc1ccc(-c2ccccc2-c2nn[nH]n2)cc1", "note": "[CARBOXYLIC ACID METABOLITE]", "values": [{"measurement": "ED50", "setting": "[11]", "result": 9.05, "unit": "µg/kg"}]}, {"smiles": "C[C@](N)(Cc1ccc(O)c(O)c1)C(=O)O", "note": "[METHYLDOPA]", "values": [{"measurement": "bioavailability", "setting": "[4]", "result": 94.2, "unit": "%"}]}, {"smiles": "CCCc1nc(C(C)(C)O)c(C(=O)O)n1Cc1ccc(-c2ccccc2-c2nnn[nH]2)cc1", "note": "[OLMESARTAN]", "values": [{"measurement": "half-life", "setting": "[12]", "result": 30, "unit": "min"}]}, {"smiles": "Nc1nc2[nH]cc(CCc3ccc(C(=O)N[C@@H](CCC(=O)O)C(=O)O)cc3)c2c(=O)[nH]1", "note": "[PEMETREXED]", "values": [{"measurement": "logP", "setting": "[3]", "result": 0.75}]}, {"smiles": "CC1Sc2c(C(=O)O)c(=O)c3cc(F)c(N4CCNCC4)cc3n21", "note": "(stereo unspecified) [ULIFLOXACIN]", "values": [{"measurement": "Cmax", "setting": "[13]", "result": 630, "unit": "ng/mL"}, {"measurement": "AUC", "setting": "[14]", "result": 22200, "unit": "ng·h/mL"}]}]}
